# Legend:
# Cytochrome P450 2B1 = target: T1, Cytochrome P450 2B1 (Rattus norvegicus, UniProt P00176); assay: Spectral dissociation constant for rat liver Cytochrome P450 2B1; type: ADME; conditions: read-out: Ks
# T1 sequence (P00176 whole entry): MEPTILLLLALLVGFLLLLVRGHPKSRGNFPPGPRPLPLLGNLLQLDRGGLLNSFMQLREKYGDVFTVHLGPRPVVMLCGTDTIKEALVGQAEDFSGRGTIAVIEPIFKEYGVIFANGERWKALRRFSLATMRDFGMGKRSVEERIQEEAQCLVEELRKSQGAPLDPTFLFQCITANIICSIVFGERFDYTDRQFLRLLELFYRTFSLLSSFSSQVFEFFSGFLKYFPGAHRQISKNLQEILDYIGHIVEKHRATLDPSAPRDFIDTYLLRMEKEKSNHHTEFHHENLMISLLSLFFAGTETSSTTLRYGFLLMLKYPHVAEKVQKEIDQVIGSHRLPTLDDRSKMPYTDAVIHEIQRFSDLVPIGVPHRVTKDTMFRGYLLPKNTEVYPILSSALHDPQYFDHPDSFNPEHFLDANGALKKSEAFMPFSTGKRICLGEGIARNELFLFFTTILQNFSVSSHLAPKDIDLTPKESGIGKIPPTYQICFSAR
# Cytochrome P450 1A1 = target: T2, Cytochrome P450 1A1 (Rattus norvegicus, UniProt P00185); assay: Spectral dissociation constant for rat liver Cytochrome P450 1A1; type: ADME; conditions: read-out: Ks
# T2 sequence (P00185 whole entry): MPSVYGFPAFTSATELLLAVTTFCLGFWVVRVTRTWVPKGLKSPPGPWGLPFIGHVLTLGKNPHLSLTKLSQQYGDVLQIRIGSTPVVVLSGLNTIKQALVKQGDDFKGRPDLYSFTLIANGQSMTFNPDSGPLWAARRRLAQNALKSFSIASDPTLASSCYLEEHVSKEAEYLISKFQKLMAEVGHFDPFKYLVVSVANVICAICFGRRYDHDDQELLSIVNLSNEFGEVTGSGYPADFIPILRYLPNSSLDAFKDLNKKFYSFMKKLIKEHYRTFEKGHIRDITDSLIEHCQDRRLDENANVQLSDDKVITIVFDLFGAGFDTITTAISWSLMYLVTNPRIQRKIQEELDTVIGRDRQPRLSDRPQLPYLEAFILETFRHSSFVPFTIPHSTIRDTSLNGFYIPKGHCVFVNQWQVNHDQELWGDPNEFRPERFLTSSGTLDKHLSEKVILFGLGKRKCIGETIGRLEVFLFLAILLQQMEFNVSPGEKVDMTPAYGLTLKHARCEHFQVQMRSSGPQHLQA
smiles,measurement,setting,value
CC(=O)Nc1ccc(O)cc1 [ACETAMINOPHEN],Kd,Cytochrome P450 2B1,800 µM
same,Kd,Cytochrome P450 1A1,870 µM
